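The compound was tested at five concentrations on cells cultured in 96-well plates, with a 48-hour exposure period. TGI marks complete inhibition of growth.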
Tests used:
Assay in all cases: NCI-60 cell line screen, 48 h
786-0 renal = test system: 786-0 renal
A549 NSCLC = test system: A549 NSCLC
ACHN renal = test system: ACHN renal
CAKI-1 renal = test system: CAKI-1 renal
CCRF-CEM leukemia = test system: CCRF-CEM leukemia
COLO 205 colon = test system: COLO 205 colon
DLD-1 colon = test system: DLD-1 colon
EKVX NSCLC = test system: EKVX NSCLC
HCC-2998 colon = test system: HCC-2998 colon
HCT-116 colon = test system: HCT-116 colon
HCT-15 colon = test system: HCT-15 colon
HL-60(TB) leukemia = test system: HL-60(TB) leukemia
HOP-18 NSCLC = test system: HOP-18 NSCLC
HOP-62 NSCLC = test system: HOP-62 NSCLC
HT29 colon = test system: HT29 colon
IGROV1 ovarian = test system: IGROV1 ovarian
K-562 leukemia = test system: K-562 leukemia
KM12 colon = test system: KM12 colon
KM20L2 colon = test system: KM20L2 colon
LOX IMVI melanoma = test system: LOX IMVI melanoma
LXFL 529 NSCLC = test system: LXFL 529 NSCLC
M14 melanoma = test system: M14 melanoma
M19-MEL melanoma = test system: M19-MEL melanoma
MALME-3M melanoma = test system: MALME-3M melanoma
MOLT-4 leukemia = test system: MOLT-4 leukemia
NCI-H226 lung = test system: NCI-H226 lung
NCI-H23 lung = test system: NCI-H23 lung
NCI-H460 lung = test system: NCI-H460 lung
NCI-H522 lung = test system: NCI-H522 lung
OVCAR-3 ovarian = test system: OVCAR-3 ovarian
OVCAR-4 ovarian = test system: OVCAR-4 ovarian
OVCAR-5 ovarian = test system: OVCAR-5 ovarian
OVCAR-8 ovarian = test system: OVCAR-8 ovarian
RPMI-8226 leukemia = test system: RPMI-8226 leukemia
RXF 393 renal = test system: RXF 393 renal
RXF-631 renal = test system: RXF-631 renal
SF-268 CNS = test system: SF-268 CNS
SF-295 CNS = test system: SF-295 CNS
SF-539 CNS = test system: SF-539 CNS
SK-MEL-2 melanoma = test system: SK-MEL-2 melanoma
SK-MEL-28 melanoma = test system: SK-MEL-28 melanoma
SK-MEL-5 melanoma = test system: SK-MEL-5 melanoma
SN12C renal = test system: SN12C renal
SNB-19 CNS = test system: SNB-19 CNS
SNB-75 CNS = test system: SNB-75 CNS
SNB-78 CNS = test system: SNB-78 CNS
SW-620 colon = test system: SW-620 colon
U251 CNS = test system: U251 CNS
UACC-257 melanoma = test system: UACC-257 melanoma
UACC-62 melanoma = test system: UACC-62 melanoma
UO-31 renal = test system: UO-31 renal
XF 498 CNS = test system: XF 498 CNS

Measured: TGI

O=[N+]([O-])c1ccc(Sc2c3ccccc3nc3ccccc23)cc1
> 100 µM: 786-0 renal | A549 NSCLC | ACHN renal | CAKI-1 renal | CCRF-CEM leukemia | COLO 205 colon | DLD-1 colon | EKVX NSCLC | HCC-2998 colon | HCT-116 colon | HCT-15 colon | HL-60(TB) leukemia | HOP-18 NSCLC | HOP-62 NSCLC | HT29 colon | IGROV1 ovarian | K-562 leukemia | KM12 colon | KM20L2 colon | LOX IMVI melanoma | LXFL 529 NSCLC | M14 melanoma | M19-MEL melanoma | MALME-3M melanoma | MOLT-4 leukemia | NCI-H226 lung | NCI-H23 lung | NCI-H460 lung | NCI-H522 lung | OVCAR-3 ovarian | OVCAR-4 ovarian | OVCAR-5 ovarian | OVCAR-8 ovarian | RPMI-8226 leukemia | RXF 393 renal | RXF-631 renal | SF-268 CNS | SF-295 CNS | SF-539 CNS | SK-MEL-2 melanoma | SK-MEL-28 melanoma | SK-MEL-5 melanoma | SN12C renal | SNB-19 CNS | SNB-75 CNS | SNB-78 CNS | SW-620 colon | U251 CNS | UACC-257 melanoma | UACC-62 melanoma | UO-31 renal | XF 498 CNS

— PubChem BioAssay (NCI)
